From PMC3399817 (PLoS ONE, 2012)

Key:
Experiment in all cases: KINOMEscan
Type in all cases: binding
IRAK3 = target: T1, IRAK3 (Homo sapiens, UniProt Q9Y616); conditions: IRAK3, 1 uM
T1 construct: purchased Ambit KINOMEscan (DiscoverX)
How it was run: (§1)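 Substrate-binding inhibition measured with compound present at 1 μM, single concentration, to pick out affected kinases.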

TTK = target: T2, TTK (Homo sapiens, UniProt P33981); conditions: 1 uM
T2 construct: purchased Ambit KINOMEscan (DiscoverX)
How it was run: as §1

MAP3K3 = target: T3, MAP3K3 (Homo sapiens, UniProt Q99759); conditions: MAP3K3, 1 uM
T3 construct: purchased Ambit KINOMEscan (DiscoverX)
How it was run: as §1

MAST1 = target: T4, MAST1 (Homo sapiens, UniProt Q9Y2H9); conditions: MAST1, 1 uM
T4 construct: purchased Ambit KINOMEscan (DiscoverX)
How it was run: as §1

TAK1 = target: T5, TAK1 (Homo sapiens, UniProt O43318); conditions: TAK1, 1 uM
T5 construct: purchased Ambit KINOMEscan (DiscoverX)
T5 sequence (O43318 whole entry): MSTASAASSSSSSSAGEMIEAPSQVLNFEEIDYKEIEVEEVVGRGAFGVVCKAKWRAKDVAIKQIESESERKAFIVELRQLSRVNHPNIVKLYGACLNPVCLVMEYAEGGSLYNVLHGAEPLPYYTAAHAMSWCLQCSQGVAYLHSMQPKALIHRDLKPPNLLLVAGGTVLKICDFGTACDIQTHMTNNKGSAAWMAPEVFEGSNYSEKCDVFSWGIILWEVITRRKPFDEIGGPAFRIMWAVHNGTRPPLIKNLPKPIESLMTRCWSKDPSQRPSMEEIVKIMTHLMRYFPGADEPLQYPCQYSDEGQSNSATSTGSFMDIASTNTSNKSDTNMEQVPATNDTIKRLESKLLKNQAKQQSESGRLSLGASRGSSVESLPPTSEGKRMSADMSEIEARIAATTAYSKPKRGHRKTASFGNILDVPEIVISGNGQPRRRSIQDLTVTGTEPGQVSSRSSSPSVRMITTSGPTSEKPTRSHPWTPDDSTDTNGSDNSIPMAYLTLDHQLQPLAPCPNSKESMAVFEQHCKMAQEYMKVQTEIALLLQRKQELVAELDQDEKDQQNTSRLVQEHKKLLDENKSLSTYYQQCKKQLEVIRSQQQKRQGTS
How it was run: as §1

BMPR1B = target: T6, BMPR1B (Homo sapiens, UniProt O00238); conditions: 1 uM
T6 construct: purchased Ambit KINOMEscan (DiscoverX)
How it was run: as §1

ALK = target: T7, ALK (Homo sapiens, UniProt Q9UM73); conditions: 1 uM
T7 construct: purchased Ambit KINOMEscan (DiscoverX)
How it was run: as §1

[1] = target: T8, RPS6KA4(Kin.Dom.1-N-terminal) (Homo sapiens, UniProt O75676); conditions: 1 uM
T8 construct: RPS6KA4(Kin.Dom.1-N-terminal); purchased Ambit KINOMEscan (DiscoverX)
How it was run: as §1

CDKL5 = target: T9, CDKL5 (Homo sapiens, UniProt O76039); conditions: CDKL5, 1 uM
T9 construct: purchased Ambit KINOMEscan (DiscoverX)
T9 sequence (O76039 whole entry): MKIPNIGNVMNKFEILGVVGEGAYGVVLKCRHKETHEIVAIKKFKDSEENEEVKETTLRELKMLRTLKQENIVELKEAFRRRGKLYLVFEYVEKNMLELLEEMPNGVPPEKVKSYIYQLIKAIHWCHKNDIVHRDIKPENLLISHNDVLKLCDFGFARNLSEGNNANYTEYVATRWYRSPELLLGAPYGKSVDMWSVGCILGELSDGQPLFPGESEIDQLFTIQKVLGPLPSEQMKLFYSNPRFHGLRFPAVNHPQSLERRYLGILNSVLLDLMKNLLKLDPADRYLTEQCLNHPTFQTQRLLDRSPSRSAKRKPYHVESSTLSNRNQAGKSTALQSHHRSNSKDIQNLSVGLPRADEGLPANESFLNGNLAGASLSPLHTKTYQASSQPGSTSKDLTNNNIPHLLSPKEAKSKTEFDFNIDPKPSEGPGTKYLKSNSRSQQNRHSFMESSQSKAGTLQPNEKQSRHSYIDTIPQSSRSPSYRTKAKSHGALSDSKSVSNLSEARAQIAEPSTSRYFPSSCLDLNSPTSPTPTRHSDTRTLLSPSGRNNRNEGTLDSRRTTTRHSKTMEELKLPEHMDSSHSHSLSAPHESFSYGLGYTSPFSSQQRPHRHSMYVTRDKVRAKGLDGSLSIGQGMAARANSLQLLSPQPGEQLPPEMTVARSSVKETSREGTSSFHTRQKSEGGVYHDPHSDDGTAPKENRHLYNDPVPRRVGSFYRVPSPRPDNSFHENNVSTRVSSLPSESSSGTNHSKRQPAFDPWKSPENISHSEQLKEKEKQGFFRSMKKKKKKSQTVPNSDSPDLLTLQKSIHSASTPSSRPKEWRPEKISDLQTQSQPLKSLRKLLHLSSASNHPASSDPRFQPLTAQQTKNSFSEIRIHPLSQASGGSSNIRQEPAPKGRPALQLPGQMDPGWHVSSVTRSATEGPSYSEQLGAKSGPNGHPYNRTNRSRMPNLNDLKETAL
How it was run: as §1

GCN2(Kin.Dom.2,S808G) = target: T10, GCN2(Kin.Dom.2,S808G) (Homo sapiens, UniProt Q9P2K8, S808G); conditions: 1 uM
T10 construct: GCN2(Kin.Dom.2,S808G); purchased Ambit KINOMEscan (DiscoverX)
How it was run: as §1

AKT2 = target: T11, AKT2 (Homo sapiens, UniProt P31751); conditions: AKT2, 1 uM
T11 construct: purchased Ambit KINOMEscan (DiscoverX)
How it was run: as §1

MST3 = target: T12, MST3 (Homo sapiens, UniProt Q9Y6E0); conditions: MST3, 1 uM
T12 construct: purchased Ambit KINOMEscan (DiscoverX)
How it was run: as §1

KIT(D816V) = target: T13, KIT(D816V) (Homo sapiens, UniProt P10721, D816V); conditions: 1 uM
T13 construct: purchased Ambit KINOMEscan (DiscoverX)
How it was run: as §1

AURKB = target: T14, AURKB (Homo sapiens, UniProt Q96GD4); conditions: 1 uM
T14 construct: purchased Ambit KINOMEscan (DiscoverX)
How it was run: as §1

NEK9 = target: T15, NEK9 (Homo sapiens, UniProt Q8TD19); conditions: NEK9, 1 uM
T15 construct: purchased Ambit KINOMEscan (DiscoverX)
How it was run: as §1

LYN = target: T16, LYN (Homo sapiens, UniProt P07948); conditions: 1 uM
T16 construct: purchased Ambit KINOMEscan (DiscoverX)
T16 sequence (P07948 whole entry): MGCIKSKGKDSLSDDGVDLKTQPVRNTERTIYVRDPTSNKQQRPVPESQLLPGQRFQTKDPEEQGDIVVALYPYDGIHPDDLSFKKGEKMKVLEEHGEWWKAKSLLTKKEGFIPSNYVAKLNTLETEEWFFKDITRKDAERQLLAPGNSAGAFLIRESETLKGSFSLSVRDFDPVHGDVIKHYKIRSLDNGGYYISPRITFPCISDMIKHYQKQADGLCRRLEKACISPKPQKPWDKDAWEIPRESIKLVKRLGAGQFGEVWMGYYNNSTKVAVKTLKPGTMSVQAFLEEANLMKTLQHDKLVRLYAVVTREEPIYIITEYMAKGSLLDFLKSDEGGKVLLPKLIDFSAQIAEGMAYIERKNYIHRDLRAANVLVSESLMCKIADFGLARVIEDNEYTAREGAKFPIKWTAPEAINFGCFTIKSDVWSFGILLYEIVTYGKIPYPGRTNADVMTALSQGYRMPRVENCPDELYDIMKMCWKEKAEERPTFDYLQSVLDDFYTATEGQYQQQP
How it was run: as §1

FGFR1 = target: T17, FGFR1 (Homo sapiens, UniProt P11362); conditions: FGFR1, 1 uM
T17 construct: purchased Ambit KINOMEscan (DiscoverX)
How it was run: as §1

CAMK2D = target: T18, CAMK2D (Homo sapiens, UniProt Q13557); conditions: 1 uM
T18 construct: purchased Ambit KINOMEscan (DiscoverX)
How it was run: as §1

MEK3 = target: T19, MEK3 (Homo sapiens, UniProt P46734); conditions: MEK3, 1 uM
T19 construct: purchased Ambit KINOMEscan (DiscoverX)
How it was run: as §1

HCK = target: T20, HCK (Homo sapiens, UniProt P08631); conditions: 1 uM
T20 construct: purchased Ambit KINOMEscan (DiscoverX)
How it was run: as §1

FGFR3 = target: T21, FGFR3 (Homo sapiens, UniProt P22607); conditions: FGFR3, 1 uM
T21 construct: purchased Ambit KINOMEscan (DiscoverX)
How it was run: as §1

EGFR(G719S) = target: T22, EGFR(G719S) (Homo sapiens, UniProt P00533, G719S); conditions: 1 uM
T22 construct: purchased Ambit KINOMEscan (DiscoverX)
T22 sequence (P00533 25-1210 G719S): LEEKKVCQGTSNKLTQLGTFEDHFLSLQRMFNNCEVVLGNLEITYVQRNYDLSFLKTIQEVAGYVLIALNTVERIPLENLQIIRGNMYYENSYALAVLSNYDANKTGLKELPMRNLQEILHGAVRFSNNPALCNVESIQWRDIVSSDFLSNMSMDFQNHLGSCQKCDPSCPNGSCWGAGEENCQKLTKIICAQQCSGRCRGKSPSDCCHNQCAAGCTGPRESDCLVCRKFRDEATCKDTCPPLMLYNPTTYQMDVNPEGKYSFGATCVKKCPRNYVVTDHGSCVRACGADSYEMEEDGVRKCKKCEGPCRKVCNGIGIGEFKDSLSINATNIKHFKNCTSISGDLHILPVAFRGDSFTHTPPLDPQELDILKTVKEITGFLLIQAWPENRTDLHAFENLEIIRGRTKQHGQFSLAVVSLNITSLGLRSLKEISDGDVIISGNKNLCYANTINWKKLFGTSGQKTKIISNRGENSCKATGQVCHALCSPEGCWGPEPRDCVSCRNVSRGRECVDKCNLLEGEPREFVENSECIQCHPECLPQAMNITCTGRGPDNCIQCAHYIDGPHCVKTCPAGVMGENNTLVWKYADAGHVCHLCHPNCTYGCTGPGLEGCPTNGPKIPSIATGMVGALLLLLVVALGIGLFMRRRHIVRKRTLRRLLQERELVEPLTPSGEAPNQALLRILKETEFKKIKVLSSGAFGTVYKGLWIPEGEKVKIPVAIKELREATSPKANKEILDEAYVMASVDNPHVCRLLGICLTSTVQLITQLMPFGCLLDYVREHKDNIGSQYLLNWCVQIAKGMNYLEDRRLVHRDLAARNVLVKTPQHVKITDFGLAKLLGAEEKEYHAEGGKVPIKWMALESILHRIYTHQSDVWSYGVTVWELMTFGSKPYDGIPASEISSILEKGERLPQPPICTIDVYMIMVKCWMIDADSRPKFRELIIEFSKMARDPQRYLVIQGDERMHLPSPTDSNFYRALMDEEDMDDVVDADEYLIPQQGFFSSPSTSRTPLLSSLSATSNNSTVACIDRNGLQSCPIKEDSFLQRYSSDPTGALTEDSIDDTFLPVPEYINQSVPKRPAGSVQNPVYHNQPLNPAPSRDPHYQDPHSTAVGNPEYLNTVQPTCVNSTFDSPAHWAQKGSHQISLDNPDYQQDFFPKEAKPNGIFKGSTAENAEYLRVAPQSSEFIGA
How it was run: as §1

ITK = target: T23, ITK (Homo sapiens, UniProt Q08881); conditions: 1 uM
T23 construct: purchased Ambit KINOMEscan (DiscoverX)
How it was run: as §1

CSK = target: T24, CSK (Homo sapiens, UniProt P41240); conditions: 1 uM
T24 construct: purchased Ambit KINOMEscan (DiscoverX)
T24 sequence (P41240 whole entry): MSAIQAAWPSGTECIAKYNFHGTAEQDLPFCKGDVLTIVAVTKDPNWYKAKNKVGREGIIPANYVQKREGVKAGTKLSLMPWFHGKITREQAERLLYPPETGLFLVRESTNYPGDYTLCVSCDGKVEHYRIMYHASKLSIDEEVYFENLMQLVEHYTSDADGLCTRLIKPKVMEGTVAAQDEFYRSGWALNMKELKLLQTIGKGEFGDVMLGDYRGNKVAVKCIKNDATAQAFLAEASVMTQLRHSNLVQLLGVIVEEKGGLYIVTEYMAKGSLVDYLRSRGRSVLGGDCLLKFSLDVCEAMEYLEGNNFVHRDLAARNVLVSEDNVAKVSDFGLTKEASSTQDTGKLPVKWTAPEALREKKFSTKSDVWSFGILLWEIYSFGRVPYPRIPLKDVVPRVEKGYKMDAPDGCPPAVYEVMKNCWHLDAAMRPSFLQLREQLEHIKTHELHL
How it was run: as §1

FGFR3(G697C) = target: T25, FGFR3(G697C) (Homo sapiens, UniProt P22607, G697C); conditions: 1 uM
T25 construct: purchased Ambit KINOMEscan (DiscoverX)
How it was run: as §1

LIMK1 = target: T26, LIMK1 (Homo sapiens, UniProt P53667); conditions: LIMK1, 1 uM
T26 construct: purchased Ambit KINOMEscan (DiscoverX)
T26 sequence (P53667 whole entry): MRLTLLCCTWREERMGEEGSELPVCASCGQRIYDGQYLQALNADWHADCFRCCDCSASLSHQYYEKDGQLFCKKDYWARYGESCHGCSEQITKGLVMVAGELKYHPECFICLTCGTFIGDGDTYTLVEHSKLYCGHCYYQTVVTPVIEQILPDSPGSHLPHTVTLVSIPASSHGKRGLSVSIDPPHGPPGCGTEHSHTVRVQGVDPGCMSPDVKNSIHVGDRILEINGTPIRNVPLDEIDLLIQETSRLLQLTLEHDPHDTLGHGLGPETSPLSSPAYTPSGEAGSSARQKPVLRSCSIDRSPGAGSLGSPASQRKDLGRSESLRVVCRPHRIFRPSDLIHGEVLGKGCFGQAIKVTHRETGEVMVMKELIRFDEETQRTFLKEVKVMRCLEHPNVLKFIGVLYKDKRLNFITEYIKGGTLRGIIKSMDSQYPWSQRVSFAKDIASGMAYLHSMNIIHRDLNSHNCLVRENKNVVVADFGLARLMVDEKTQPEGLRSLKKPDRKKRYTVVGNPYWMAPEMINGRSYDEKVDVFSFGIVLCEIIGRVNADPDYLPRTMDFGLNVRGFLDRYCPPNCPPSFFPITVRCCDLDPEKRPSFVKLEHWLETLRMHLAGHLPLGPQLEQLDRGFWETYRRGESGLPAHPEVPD
How it was run: as §1

PRKCQ = target: T27, PRKCQ (Homo sapiens, UniProt Q04759); conditions: 1 uM
T27 construct: purchased Ambit KINOMEscan (DiscoverX)
T27 sequence (Q04759 whole entry): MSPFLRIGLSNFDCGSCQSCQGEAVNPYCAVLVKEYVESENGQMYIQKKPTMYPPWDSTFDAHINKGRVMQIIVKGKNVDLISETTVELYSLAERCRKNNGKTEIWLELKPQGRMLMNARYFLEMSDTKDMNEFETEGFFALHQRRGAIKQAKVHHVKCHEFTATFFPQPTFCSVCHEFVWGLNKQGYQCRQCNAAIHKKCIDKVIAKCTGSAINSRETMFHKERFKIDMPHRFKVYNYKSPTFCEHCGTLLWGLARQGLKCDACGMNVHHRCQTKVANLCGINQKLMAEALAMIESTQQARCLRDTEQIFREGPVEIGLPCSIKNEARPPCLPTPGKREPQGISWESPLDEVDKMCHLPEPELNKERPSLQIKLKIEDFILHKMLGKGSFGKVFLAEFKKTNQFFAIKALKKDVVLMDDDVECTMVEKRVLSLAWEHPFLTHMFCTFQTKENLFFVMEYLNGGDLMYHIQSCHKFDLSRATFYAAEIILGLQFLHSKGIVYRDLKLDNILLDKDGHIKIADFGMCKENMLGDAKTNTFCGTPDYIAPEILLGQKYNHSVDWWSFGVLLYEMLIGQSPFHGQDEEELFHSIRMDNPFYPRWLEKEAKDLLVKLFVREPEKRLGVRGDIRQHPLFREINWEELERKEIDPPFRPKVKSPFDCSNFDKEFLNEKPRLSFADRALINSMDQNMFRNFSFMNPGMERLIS
How it was run: as §1

CSF1R = target: T28, CSF1R (Homo sapiens, UniProt P07333); conditions: 1 uM
T28 construct: purchased Ambit KINOMEscan (DiscoverX)
How it was run: as §1

DAPK1 = target: T29, DAPK1 (Homo sapiens, UniProt P53355); conditions: DAPK1, 1 uM
T29 construct: purchased Ambit KINOMEscan (DiscoverX)
How it was run: as §1

JNK3 = target: T30, JNK3 (Homo sapiens, UniProt P53779); conditions: JNK3, 1 uM
T30 construct: purchased Ambit KINOMEscan (DiscoverX)
How it was run: as §1

NEK6 = target: T31, NEK6 (Homo sapiens, UniProt Q9HC98); conditions: NEK6, 1 uM
T31 construct: purchased Ambit KINOMEscan (DiscoverX)
How it was run: as §1

CIT = target: T32, CIT (Homo sapiens, UniProt O14578); conditions: 1 uM
T32 construct: purchased Ambit KINOMEscan (DiscoverX)
How it was run: as §1

GRK1 = target: T33, GRK1 (Homo sapiens, UniProt Q15835); conditions: GRK1, 1 uM
T33 construct: purchased Ambit KINOMEscan (DiscoverX)
How it was run: as §1

[2] = target: T34, JAK1(JH1domain-catalytic) (Homo sapiens, UniProt P23458); conditions: 1 uM
T34 construct: JAK1(JH1domain-catalytic); purchased Ambit KINOMEscan (DiscoverX)
How it was run: as §1

PKMYT1 = target: T35, PKMYT1 (Homo sapiens, UniProt Q99640); conditions: PKMYT1, 1 uM
T35 construct: purchased Ambit KINOMEscan (DiscoverX)
How it was run: as §1

| SMILES | % binding compared to no inhibitor control (IRAK3) | % binding compared to no inhibitor control (TTK) | % binding compared to no inhibitor control (MAP3K3) | % binding compared to no inhibitor control (MAST1) | % binding compared to no inhibitor control (TAK1) | % binding compared to no inhibitor control (BMPR1B) | % binding compared to no inhibitor control (ALK) | % binding compared to no inhibitor control [1] | % binding compared to no inhibitor control (CDKL5) | % binding compared to no inhibitor control (GCN2(Kin.Dom.2,S808G)) | % binding compared to no inhibitor control (AKT2) | % binding compared to no inhibitor control (MST3) | % binding compared to no inhibitor control (KIT(D816V)) | % binding compared to no inhibitor control (AURKB) | % binding compared to no inhibitor control (NEK9) | % binding compared to no inhibitor control (LYN) | % binding compared to no inhibitor control (FGFR1) | % binding compared to no inhibitor control (CAMK2D) | % binding compared to no inhibitor control (MEK3) | % binding compared to no inhibitor control (HCK) | other results |
| --- | --- | --- | --- | --- | --- | --- | --- | --- | --- | --- | --- | --- | --- | --- | --- | --- | --- | --- | --- | --- | --- |
| COc1ccc(-c2cc3nccn3c(Nc3ncccc3C(N)=O)n2)cc1OC.Cl.Cl [BAY61-3606, 2-[7-(3,4-dimethoxyphenyl)-imidazo [1,2-c]pyrimidin-5-ylamino] nicotinamide dihydrochloride, reference compound] | 16% | 51% | 97% | 52% | 63% | 77% | 84% | 32% | 60% | 54% | 79% | 56% | 4.7% | 69% | 90% | 100% | 93% | 72% | 21% | 88% | % binding compared to no inhibitor control (FGFR3): 100%; % binding compared to no inhibitor control (EGFR(G719S)): 71%; % binding compared to no inhibitor control (ITK): 100%; % binding compared to no inhibitor control (CSK): 68%; % binding compared to no inhibitor control (FGFR3(G697C)): 83%; % binding compared to no inhibitor control (LIMK1): 100%; % binding compared to no inhibitor control (PRKCQ): 88%; % binding compared to no inhibitor control (CSF1R): 51%; % binding compared to no inhibitor control (DAPK1): 66%; % binding compared to no inhibitor control (JNK3): 41%; % binding compared to no inhibitor control (NEK6): 63%; % binding compared to no inhibitor control (CIT): 0.4%; % binding compared to no inhibitor control (GRK1): 65%; % binding compared to no inhibitor control [2]: 71%; % binding compared to no inhibitor control (PKMYT1): 88% |
| COc1ccccc1Nc1nc(-c2ccc(OC)c(OC)c2)cc2nccn12 [BAY derivative 6] | 57% | 74% | 85% | 74% | 96% | 100% | 52% | 74% | 100% | 99% | 100% | 100% | 22% | 68% | 100% | 96% | 100% | 100% | 94% | 83% | % binding compared to no inhibitor control (FGFR3): 100%; % binding compared to no inhibitor control (EGFR(G719S)): 100%; % binding compared to no inhibitor control (ITK): 100%; % binding compared to no inhibitor control (CSK): 99%; % binding compared to no inhibitor control (FGFR3(G697C)): 70%; % binding compared to no inhibitor control (LIMK1): 91%; % binding compared to no inhibitor control (PRKCQ): 100%; % binding compared to no inhibitor control (CSF1R): 42%; % binding compared to no inhibitor control (DAPK1): 76%; % binding compared to no inhibitor control (JNK3): 100%; % binding compared to no inhibitor control (NEK6): 100%; % binding compared to no inhibitor control (CIT): 95%; % binding compared to no inhibitor control (GRK1): 100%; % binding compared to no inhibitor control [2]: 48%; % binding compared to no inhibitor control (PKMYT1): 95% |
